Results on 4 compounds are retold here after ChEMBL document CHEMBL4017490, “Design, Synthesis, and Pharmacological Evaluation of Novel Multisubstituted Pyridin-3-amine Derivatives as Multitargeted Protein Kinase Inhibitors for the Treatment of Non-Small Cell Lung Cancer” (J Med Chem, 2017).

In data set [1] the target is Fibroblast growth factor receptor 2 (Homo sapiens, UniProt P21802).
Description: Inhibition of recombinant human FGFR2 using poly (Glu,Tyr) 4:1 as substrate after 60 mins by ELISA
Data set [2] concerns the target Epidermal growth factor receptor (Homo sapiens, UniProt P00533, L858R/T790M). The data set is described as follows: Inhibition of recombinant EGFR T790M/L858R mutant (unknown origin) using poly (Glu,Tyr) 4:1 as substrate after 60 mins by ELISA.
Data set [3] concerns the target Proto-oncogene tyrosine-protein kinase Src (Homo sapiens, UniProt P12931). Nature of the data set: Inhibition of recombinant c-Src (unknown origin) using poly (Glu,Tyr) 4:1 as substrate after 60 mins by ELISA.
For the next data set, the target named is Insulin receptor (Homo sapiens, UniProt P06213). Nature of the data set: Inhibition of recombinant IR (unknown origin) using poly (Glu,Tyr) 4:1 as substrate after 60 mins by ELISA.
Data set [4] concerns the target Platelet-derived growth factor receptor alpha (Homo sapiens, UniProt P16234). Nature of the data set: Inhibition of recombinant PDGFR-alpha (unknown origin) using poly (Glu,Tyr) 4:1 as substrate after 60 mins by ELISA. Background: In an ELISA, binding on a coated surface is turned into a signal by an enzyme label.
Data set [5] has as its target Receptor tyrosine-protein kinase erbB-2 (Homo sapiens, UniProt P04626). Nature of the data set: Inhibition of recombinant ErbB2 (unknown origin) using poly (Glu,Tyr) 4:1 as substrate after 60 mins by ELISA.
The target in data set [6] is Proto-oncogene tyrosine-protein kinase ROS (Homo sapiens, UniProt P08922). The data set is described as follows: Inhibition of recombinant ROS1 (unknown origin) using poly (Glu,Tyr) 4:1 as substrate after 60 mins by ELISA.
The target in a further data set is Ephrin type-A receptor 2 (Homo sapiens, UniProt P29317). The data set is described as follows: Inhibition of recombinant EPH-A2 (unknown origin) using poly (Glu,Tyr) 4:1 as substrate after 60 mins by ELISA.
For data set [7], the target named is Mast/stem cell growth factor receptor Kit (Homo sapiens, UniProt P10721). Nature of the data set: Inhibition of recombinant c-Kit (unknown origin) using poly (Glu,Tyr) 4:1 as substrate after 60 mins by ELISA.
Data set [8] addresses Mitogen-activated protein kinase 1 (Homo sapiens, UniProt P28482). Nature of the data set: Inhibition of Erk2 (unknown origin) by FRET assay.
The target of data set [9] is T1, Tyrosine-protein kinase receptor TYRO3 (Homo sapiens, UniProt Q06418).
T1 sequence (Q06418 whole entry): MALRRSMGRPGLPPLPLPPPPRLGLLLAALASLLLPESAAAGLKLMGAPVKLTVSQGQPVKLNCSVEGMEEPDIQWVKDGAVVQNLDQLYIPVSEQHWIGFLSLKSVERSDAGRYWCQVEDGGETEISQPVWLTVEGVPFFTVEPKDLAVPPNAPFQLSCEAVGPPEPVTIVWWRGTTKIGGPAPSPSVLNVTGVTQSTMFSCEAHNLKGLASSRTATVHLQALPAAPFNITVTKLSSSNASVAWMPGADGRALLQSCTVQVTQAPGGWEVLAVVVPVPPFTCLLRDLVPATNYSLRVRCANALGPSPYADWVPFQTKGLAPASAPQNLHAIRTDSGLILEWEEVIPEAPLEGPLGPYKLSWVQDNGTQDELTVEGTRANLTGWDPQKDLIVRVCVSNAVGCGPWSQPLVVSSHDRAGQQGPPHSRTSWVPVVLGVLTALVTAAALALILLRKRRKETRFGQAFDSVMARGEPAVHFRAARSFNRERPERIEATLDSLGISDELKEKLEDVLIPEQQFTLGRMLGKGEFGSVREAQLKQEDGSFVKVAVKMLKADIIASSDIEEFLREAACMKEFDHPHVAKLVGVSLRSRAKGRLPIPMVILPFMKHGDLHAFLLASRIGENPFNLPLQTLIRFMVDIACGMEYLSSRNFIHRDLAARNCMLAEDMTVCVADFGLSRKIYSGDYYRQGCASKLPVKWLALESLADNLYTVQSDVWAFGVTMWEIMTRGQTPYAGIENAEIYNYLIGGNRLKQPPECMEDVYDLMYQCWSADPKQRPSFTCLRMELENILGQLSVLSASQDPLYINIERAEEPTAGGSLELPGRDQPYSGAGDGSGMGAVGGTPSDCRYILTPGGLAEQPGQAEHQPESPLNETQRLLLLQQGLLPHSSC
The data set is described as follows: Inhibition of recombinant Tyro3 (unknown origin) using poly (Glu,Tyr) 4:1 as substrate after 60 mins by ELISA.

The target of data set [10] is Cyclin-dependent kinase 1 (Homo sapiens, UniProt P06493). The data set is described as follows: Inhibition of CDK1 (unknown origin) by FRET assay.
Data set [11] has as its target Cyclin-dependent kinase 6 (Homo sapiens, UniProt Q00534). The data set is described as follows: Inhibition of CDK6 (unknown origin) by FRET assay.
In data set [12] the target is Tyrosine-protein kinase ABL1 (Homo sapiens, UniProt P00519).
Description: Inhibition of recombinant ABL (unknown origin) using poly (Glu,Tyr) 4:1 as substrate after 60 mins by ELISA
Data set [13] has as its target ALK tyrosine kinase receptor (Homo sapiens, UniProt Q9UM73).
Description: Inhibition of recombinant ALK (unknown origin) using poly (Glu,Tyr) 4:1 as substrate after 60 mins by ELISA
The target in data set [14] is Discoidin domain-containing receptor 2 (Homo sapiens, UniProt Q16832). Nature of the data set: Inhibition of recombinant DDR2 (unknown origin) using poly (Glu,Tyr) 4:1 as substrate after 60 mins by ELISA.
Data set [15] can be described thus: Tmax in CD-1 mouse at 5 mg/kg, iv by LC-MS/MS method. The format is ADME, organism-based. The conditions noted are these: in vivo.
A short description of data set [16]: Cmax in CD-1 mouse at 5 mg/kg, iv by LC-MS/MS method. Further details: dose 5 mg/kg, route intravenous. Format: ADME, organism-based. The settings on record: in vivo.
Data set [17] is described as follows: MRT in Sprague-Dawley rat at 20 mg/kg, po by LC-MS/MS method. Format: ADME, organism-based. The settings on record: in vivo.
Data set [18] is described as follows: AUC (0 to t) in Sprague-Dawley rat at 10 mg/kg, iv by LC-MS/MS method. The format is ADME, organism-based. The conditions noted are these: in vivo.
Data set [19] in a line: AUC (0 to t) in CD-1 mouse at 5 mg/kg, iv by LC-MS/MS method. The format is ADME, organism-based. The conditions noted are these: in vivo.
The nature of data set [20]: AUC (0 to infinity) in CD-1 mouse at 20 mg/kg, po by LC-MS/MS method. Further details: dose 20 mg/kg, time infinity, route oral. Format: ADME, organism-based. The settings on record: in vivo.
Data set [21] can be described thus: AUC (0 to infinity) in CD-1 mouse at 5 mg/kg, iv by LC-MS/MS method. The format is ADME, organism-based. On the set-up: dose 5 mg/kg, time infinity, route intravenous. The settings on record: in vivo.
The nature of data set [22]: MRT in CD-1 mouse at 5 mg/kg, iv by LC-MS/MS method. The conditions noted are these: in vivo. The format is ADME, organism-based.
Data set [23] is described as follows: Half life in Sprague-Dawley rat at 20 mg/kg, po by LC-MS/MS method. Format: ADME, organism-based. The settings on record: in vivo.
Data set [24] is described as follows: Half life in Sprague-Dawley rat at 10 mg/kg, iv by LC-MS/MS method. The format is ADME, organism-based. The settings on record: in vivo.
Data set [25] relates to NCI-H1581. The data set is described as follows: Antitumor activity against human NCI-H1581 cells xenografted in nude mouse assessed as tumor growth inhibition at 20 mg/kg, po qd administered for 14 days measured twice per week during compound dosing. Format: functional. The settings on record: 336 h, read-out: TGI. Background: A xenograft is tissue or cells of one species grown in another, often human tumour cells in immunodeficient mice.

Data set [26] deals with Mus musculus. The data set is described as follows: Toxicity in nude mouse xenografted with human NCI-H1581 cells assessed as diarrhea at 20 mg/kg, po qd administered for 14 days. Format: organism-based. The conditions noted are these: in vivo, 336 h.
Data set [27] has as its system Mus musculus. Nature of the data set: Unbound Cmax in CD-1 mouse at 5 mg/kg, iv by LC-MS/MS method. Format: ADME, organism-based. The conditions noted are these: in vivo.
Data set [28] relates to NCI-H1581. The settings on record: Homo sapiens.
Description: Antitumor activity against human NCI-H1581 cells xenografted in po dosed nude mouse assessed as tumor growth inhibition administered as qd for 14 days measured twice per week during compound dosing

Chain of Mitogen-activated protein kinase 1 (P28482 whole entry): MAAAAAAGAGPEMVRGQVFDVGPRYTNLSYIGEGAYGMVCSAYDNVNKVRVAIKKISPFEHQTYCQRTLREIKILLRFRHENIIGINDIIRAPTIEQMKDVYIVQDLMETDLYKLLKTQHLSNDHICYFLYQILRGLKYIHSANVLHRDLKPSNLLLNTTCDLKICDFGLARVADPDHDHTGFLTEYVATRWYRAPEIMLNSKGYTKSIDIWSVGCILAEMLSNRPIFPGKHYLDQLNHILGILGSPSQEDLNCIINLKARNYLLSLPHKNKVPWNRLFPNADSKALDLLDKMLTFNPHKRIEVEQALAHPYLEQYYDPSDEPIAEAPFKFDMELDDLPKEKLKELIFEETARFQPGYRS
Chain of Fibroblast growth factor receptor 2 (P21802 whole entry): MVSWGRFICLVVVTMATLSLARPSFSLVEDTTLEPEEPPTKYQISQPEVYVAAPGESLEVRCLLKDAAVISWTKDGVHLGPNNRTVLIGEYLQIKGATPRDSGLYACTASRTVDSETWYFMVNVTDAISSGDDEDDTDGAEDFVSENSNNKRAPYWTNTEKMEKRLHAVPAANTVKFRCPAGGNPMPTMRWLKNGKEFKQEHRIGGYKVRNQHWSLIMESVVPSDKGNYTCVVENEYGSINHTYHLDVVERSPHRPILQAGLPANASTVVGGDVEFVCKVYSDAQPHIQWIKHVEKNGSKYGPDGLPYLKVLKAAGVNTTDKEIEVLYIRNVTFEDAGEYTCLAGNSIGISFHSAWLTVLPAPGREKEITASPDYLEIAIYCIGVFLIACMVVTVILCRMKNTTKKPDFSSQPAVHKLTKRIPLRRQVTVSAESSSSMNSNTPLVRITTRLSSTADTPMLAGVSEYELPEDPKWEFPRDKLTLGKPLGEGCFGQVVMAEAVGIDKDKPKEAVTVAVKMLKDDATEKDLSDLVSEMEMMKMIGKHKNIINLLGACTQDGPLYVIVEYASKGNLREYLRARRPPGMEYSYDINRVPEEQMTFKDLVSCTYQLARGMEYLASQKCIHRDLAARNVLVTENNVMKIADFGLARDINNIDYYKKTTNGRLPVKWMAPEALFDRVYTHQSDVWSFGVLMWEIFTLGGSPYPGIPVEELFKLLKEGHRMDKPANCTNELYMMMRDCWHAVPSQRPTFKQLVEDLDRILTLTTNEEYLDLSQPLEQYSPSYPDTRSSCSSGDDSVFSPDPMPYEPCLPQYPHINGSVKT
Chain of Tyrosine-protein kinase ABL1 (P00519 whole entry): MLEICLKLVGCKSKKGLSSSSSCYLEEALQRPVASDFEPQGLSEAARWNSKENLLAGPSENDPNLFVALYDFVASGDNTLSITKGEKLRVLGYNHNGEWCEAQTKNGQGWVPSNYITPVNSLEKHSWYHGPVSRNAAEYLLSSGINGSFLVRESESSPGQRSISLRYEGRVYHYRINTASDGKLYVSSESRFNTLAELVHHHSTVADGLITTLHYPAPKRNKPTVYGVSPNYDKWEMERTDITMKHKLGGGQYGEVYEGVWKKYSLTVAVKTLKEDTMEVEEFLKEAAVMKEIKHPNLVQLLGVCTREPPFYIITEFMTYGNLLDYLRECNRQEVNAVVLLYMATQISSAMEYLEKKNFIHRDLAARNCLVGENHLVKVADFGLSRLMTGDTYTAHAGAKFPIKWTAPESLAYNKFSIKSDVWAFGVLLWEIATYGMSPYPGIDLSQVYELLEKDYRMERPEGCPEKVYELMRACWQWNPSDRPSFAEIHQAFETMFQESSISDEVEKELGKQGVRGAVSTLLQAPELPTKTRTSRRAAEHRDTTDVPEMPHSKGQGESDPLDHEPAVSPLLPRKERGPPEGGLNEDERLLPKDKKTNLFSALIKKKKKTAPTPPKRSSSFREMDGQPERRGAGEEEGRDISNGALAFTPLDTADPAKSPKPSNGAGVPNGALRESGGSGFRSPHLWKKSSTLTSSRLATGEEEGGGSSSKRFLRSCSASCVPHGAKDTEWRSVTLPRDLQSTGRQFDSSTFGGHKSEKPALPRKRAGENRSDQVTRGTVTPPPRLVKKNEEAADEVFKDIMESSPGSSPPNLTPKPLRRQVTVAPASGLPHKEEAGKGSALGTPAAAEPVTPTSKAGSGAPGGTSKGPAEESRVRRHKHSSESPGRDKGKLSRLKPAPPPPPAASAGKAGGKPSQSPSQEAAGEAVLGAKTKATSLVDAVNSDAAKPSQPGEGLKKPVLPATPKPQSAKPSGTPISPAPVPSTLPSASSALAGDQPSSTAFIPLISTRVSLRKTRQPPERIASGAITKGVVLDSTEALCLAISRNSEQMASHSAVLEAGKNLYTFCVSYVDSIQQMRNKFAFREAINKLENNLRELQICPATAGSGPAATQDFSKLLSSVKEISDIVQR
Chain of Platelet-derived growth factor receptor alpha (P16234 whole entry): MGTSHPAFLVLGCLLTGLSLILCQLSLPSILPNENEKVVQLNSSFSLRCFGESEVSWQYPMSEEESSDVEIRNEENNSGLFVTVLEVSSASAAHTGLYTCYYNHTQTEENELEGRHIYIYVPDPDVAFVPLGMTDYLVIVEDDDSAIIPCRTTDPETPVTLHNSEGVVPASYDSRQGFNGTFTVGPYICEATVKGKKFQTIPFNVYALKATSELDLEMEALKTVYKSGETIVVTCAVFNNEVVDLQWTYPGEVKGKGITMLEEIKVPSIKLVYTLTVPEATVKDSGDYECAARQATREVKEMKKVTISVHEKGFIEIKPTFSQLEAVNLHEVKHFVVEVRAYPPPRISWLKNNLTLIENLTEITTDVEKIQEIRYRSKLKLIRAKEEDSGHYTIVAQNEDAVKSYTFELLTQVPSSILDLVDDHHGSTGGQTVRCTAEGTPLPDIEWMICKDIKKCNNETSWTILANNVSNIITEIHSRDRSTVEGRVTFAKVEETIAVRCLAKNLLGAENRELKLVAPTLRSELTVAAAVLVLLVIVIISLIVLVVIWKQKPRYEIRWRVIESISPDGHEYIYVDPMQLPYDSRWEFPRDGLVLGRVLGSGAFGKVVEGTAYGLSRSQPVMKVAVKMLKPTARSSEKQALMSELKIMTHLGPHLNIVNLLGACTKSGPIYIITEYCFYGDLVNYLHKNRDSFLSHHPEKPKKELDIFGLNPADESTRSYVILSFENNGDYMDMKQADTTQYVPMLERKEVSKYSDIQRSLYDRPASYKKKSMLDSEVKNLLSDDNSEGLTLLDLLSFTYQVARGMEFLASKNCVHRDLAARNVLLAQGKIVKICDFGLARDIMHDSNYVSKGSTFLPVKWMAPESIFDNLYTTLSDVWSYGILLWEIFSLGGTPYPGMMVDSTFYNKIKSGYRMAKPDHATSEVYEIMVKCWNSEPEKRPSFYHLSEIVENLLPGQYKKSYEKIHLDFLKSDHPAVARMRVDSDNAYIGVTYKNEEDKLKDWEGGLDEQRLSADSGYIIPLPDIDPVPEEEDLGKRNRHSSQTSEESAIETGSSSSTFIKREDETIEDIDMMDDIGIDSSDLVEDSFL
Chain of Ephrin type-A receptor 2 (P29317 whole entry): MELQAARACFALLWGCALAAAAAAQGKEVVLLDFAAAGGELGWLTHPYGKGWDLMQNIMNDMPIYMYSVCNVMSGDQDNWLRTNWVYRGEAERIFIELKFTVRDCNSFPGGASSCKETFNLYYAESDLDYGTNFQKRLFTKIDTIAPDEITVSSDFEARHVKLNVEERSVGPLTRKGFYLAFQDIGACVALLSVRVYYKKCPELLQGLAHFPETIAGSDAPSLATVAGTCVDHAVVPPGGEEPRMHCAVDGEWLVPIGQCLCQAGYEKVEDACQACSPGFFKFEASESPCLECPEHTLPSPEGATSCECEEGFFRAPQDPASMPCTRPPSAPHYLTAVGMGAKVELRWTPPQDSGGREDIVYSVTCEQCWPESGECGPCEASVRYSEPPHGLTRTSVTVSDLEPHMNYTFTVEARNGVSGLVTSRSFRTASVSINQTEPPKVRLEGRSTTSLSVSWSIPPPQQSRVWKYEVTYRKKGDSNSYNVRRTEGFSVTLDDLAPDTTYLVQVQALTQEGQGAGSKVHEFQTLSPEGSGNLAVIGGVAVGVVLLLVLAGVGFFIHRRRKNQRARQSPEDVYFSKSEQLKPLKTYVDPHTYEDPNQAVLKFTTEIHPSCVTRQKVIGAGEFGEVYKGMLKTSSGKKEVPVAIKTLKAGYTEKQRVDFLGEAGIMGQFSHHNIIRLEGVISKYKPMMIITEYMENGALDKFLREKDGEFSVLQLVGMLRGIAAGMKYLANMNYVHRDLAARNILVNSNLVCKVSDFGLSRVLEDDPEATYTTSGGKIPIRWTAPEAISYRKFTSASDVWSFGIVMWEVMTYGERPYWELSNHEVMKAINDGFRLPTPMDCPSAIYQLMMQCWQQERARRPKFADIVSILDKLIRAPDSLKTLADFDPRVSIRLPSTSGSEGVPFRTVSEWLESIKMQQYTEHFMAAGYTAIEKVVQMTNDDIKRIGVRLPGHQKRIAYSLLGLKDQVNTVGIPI
Chain of Cyclin-dependent kinase 6 (Q00534 whole entry): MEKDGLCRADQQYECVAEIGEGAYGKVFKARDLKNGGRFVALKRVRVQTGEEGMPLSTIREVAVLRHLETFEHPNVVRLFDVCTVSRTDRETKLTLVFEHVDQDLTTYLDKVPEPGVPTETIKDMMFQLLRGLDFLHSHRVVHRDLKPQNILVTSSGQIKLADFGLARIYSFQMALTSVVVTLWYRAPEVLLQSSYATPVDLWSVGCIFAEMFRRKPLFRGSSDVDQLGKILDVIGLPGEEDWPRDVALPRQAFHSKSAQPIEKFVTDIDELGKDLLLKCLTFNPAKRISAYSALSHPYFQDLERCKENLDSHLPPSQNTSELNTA
Chain of Cyclin-dependent kinase 1 (P06493 whole entry): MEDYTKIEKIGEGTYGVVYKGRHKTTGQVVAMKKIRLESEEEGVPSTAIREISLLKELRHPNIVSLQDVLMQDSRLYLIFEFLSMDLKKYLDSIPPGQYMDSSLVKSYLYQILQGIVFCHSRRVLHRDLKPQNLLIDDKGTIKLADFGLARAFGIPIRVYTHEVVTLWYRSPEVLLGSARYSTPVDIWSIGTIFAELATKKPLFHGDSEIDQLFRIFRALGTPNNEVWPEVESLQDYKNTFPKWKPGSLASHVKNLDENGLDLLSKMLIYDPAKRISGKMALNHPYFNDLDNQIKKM

Usually IC50 stands for the concentration at which inhibition is half-maximal. On to `Cc1n[nH]c2ccc(-c3cc(N[C@@H](CO)c4ccccc4)cnc3-c3cc(Cl)ccc3O)cc12`, for which the IC50 was 8.6 nM in [1]; 8.6 nM in data set [2]; 3.9 nM in data set [3]; 91.6 nM at Insulin receptor; above 100 nM in [4]; 1 to 10 nM in data set [5]. The IC50 is 273 nM in [6]; above 10 nM on Ephrin type-A receptor 2; above 10 nM in data set [7]; 960 nM in data set [8]; above 1000 nM in data set [9]; above 1000 nM in data set [10]. Also, the IC50 in data set [11] is above 1000 nM; in data set [12], 6.6 nM; in data set [13], 231 nM.

For the compound `Cc1n[nH]c2ccc(-c3cc(N[C@@H](CO)c4ccccc4)cnc3-c3ccc(F)cc3O)cc12`, the IC50 in [1] is 4.7 nM; in data set [2], 1.3 nM; in data set [3], 6 nM; on Insulin receptor it was 888 nM; in [4] it was above 100 nM; in data set [5], 1 to 10 nM. For the same compound, the IC50 in data set [6] was above 1000 nM; at Ephrin type-A receptor 2, above 100 nM; in [7] it was above 10 nM; in data set [8], above 1000 nM; in data set [9], above 1000 nM; in data set [10], above 1000 nM. Moreover, the figures for the IC50 in [11], in data set [12] and in data set [13] were above 1000 nM, 6.1 nM and 155 nM, respectively.

In general, Tmax refers to the time from dosing to the highest level. In general, Cmax refers to the maximum level reached in the sampled fluid or tissue. As a reminder, the MRT is the average time that molecules of a dose stay in the body. The AUC(0-t) is exposure summed from dosing to a finite time, without extrapolation to infinity. As usually defined, the AUC(0-inf) is total exposure, with the tail of the curve extrapolated. The half-life is the time needed for the level to fall by half in the phase considered. Low values mean fast loss, high ones slow loss. Take `Cc1n[nH]c2ccc(-c3cc(N[C@@H](CO)c4ccccc4)cnc3-c3cc(F)ccc3O)cc12`: the IC50 is 1.6 nM in data set [1]; 6 nM in data set [2]; 0.8 nM in data set [14]; 5.7 nM in data set [3]; 417 nM on Insulin receptor; above 100 nM in [4]. Besides, the IC50 was above 10 nM in data set [5]; above 1000 nM in data set [6]; above 10 nM on Ephrin type-A receptor 2; above 10 nM in data set [7]; 575 nM in data set [8]; above 1000 nM in data set [9]. Further, the IC50 in data set [10] is above 1000 nM; in data set [11] it was above 1000 nM; in data set [12], 2.9 nM; in data set [13], 101 nM. The Tmax in [15] worked out at 1.5 h. In data set [16], this compound yielded a Cmax of 106 ng/mL. The MRT in [17] stood at 6.72 h; in data set [22], 3.74 h. Besides, the AUC(0-t) in data set [18] was 13700 ng·h/mL; in [19], 289 ng·h/mL. Moreover, the values for the AUC(0-inf) in [20] and in [21] were 2410 ng·h/mL and 290 ng·h/mL, respectively. The half-life in [23] was 8 h; in data set [24] it was 2.39 h. In addition, the inhibition in vivo at 20 mg/kg in the data set with NCI-H1581 [25] worked out at 66.1%. In the data set on Mus musculus [26], the Activity result was “Toxic”. For the same compound, the fCmax with Mus musculus [27] stood at 1.1 nM. Besides, the TGI result in the data set with NCI-H1581 [28] was “Dose-dependent effect”.

For the compound `OC[C@H](Nc1cnc(-c2cc(Cl)ccc2O)c(-c2ccc3cnccc3c2)c1)c1ccccc1`, the IC50 in [1] was 2 nM; in data set [2] it was 1.9 nM; in data set [3], 6.4 nM; on Insulin receptor, 431 nM; in data set [4] it was above 100 nM; in [5], 1 to 10 nM. The IC50 is 168 nM in data set [6]; above 100 nM at Ephrin type-A receptor 2; above 10 nM in data set [7]; 196 nM in data set [8]; above 1000 nM in data set [9]; above 1000 nM in [10]. In addition, the IC50 in data set [11] is above 1000 nM; in data set [12] it was 4.3 nM; in data set [13], 93.9 nM.
